According to patent US11571480B2, “Multi-ligand drug conjugates and uses thereof” (priority 2015, dated 2023):

Tests used:
Transplanted H460 tumor = test: Inhibitory assay of conjugate LDC13B against xenograf tumors; format: in vivo, nude mice; settings: for Body weight of mice / Tumor size: H460 tumor
Description: Animal: nude mice, aged 6-8 weeks, female
1) human large cell lung cancer cell H460 were incubated at 37° C., 5% CO2 in IMDM medium containing 10% fetal bovine serum, the cells were passaged every 2-3 days.
2) generation of tumors: 7×10^6 tumor cells were injected subcutaneously into the back of nude mice, and the mice were grouped for treatment after the tumor sizes were as large as about 200 mm^3.
3) treatment: 3 mice/group, treated with LDC13B as well as controls MMAE and PBS with doses of 2.5 and 5 mg/kg every 3 days, four injections.
4) the physical performance, body weights and tumor sizes of the animals were monitored. The number of animal death was recorded during the experiment.

[1] = tested on: human nasopharyngeal cancer cell line KB; test: Cytotoxicity test of conjugate LDC13B; format: cell-based
Description: Culture medium: RPMI 1640 Medium, no folic acid
1) human nasopharyngeal cancer cell line KB, human colon carcinoma HCT-116, human prostatic cancer cell PC-3, human gastric cancer cell line GTL-16, human endometrial cancer cell HEC-1A, and human gastric cancer cell N87 were incubated at 37° C., 5% CO2 in RPMI 1640 medium containing 10% fetal bovine serum, the cells were passaged every 2-3 days.
2) human nasopharyngeal cancer cell line KB, human colon carcinoma HCT-116, human prostatic cancer cell PC-3, human gastric cancer cell line GTL-16, human endometrial cancer cell HEC-1A, and human gastric cancer cell N87 were plated at 1×10^3 cells per well (96-well plate) and incubated for 8-12 h at 37° C., 5% CO2.
3) Stock solutions of LDC conjugates or control were prepared in PBS solution. 100 μL/well of serially diluted LDC conjugates or control was added to the cells in the plate and incubated for 15-30 min at 37° C., 5% CO2. The culture medium in the wells was then removed by aspiration and the cells were incubated in fresh culture medium without conjugates (150 μL/well) for 2-3 days at 37° C., 5% CO2.
4) CellTiter 96® Aqueous One Solution Cell Proliferation Assay (Promega) was added to each well to measure the amount of […] cells, and the plate was incubated in an incubator for 1 h at 37° C., 5% CO2.
5) the plate was read at 490 nm on a microplate reader, and the cell survivals were compared for cells with or without the treatment of LDC conjugates. The LDC drug concentrations that are required for 50% cell death (IC50 values) were determined.

[2] = 2.5 mg/kg, 3 days after Injection 1
[3] = 2.5 mg/kg, 3 days after Injection 2
[4] = 2.5 mg/kg, 3 days after Injection 3
[5] = 2.5 mg/kg, 3 days after Injection 4
[6] = 5 mg/kg, 3 days after Injection 1
[7] = 5 mg/kg, 3 days after Injection 2
[8] = 5 mg/kg, 3 days after Injection 3
[9] = 5 mg/kg, 3 days after Injection 4

Compound: CC[C@H](C)[C@@H]([C@@H](CC(=O)N1CCC[C@H]1[C@H](OC)[C@@H](C)C(=O)N[C@H](C)[C@@H](O)c1ccccc1)OC)N(C)C(=O)[C@@H](NC(=O)[C@H](C(C)C)N(C)C(=O)OCc1ccc(NC(=O)[C@H](CCCNC(N)=O)NC(=O)[C@@H](NC(=O)CCCCCN2C(=O)CC(SC[C@H](NC(=O)CC[C@H](NC(=O)c3ccc(NCc4cnc5[nH]c(N)nc(=O)c5n4)cc3)C(=O)O)C(=O)NCCCC[C@@H](NC(=O)[C@H](Cc3ccc(O)cc3)NC(=O)[C@H](CO)NC(=O)[C@H](Cc3c[nH]c4ccccc34)NC(=O)[C@H](Cc3c[nH]cn3)NC(=O)[C@@H]3CCC(=O)N3)C(=O)N[C@@H](CC(C)C)C(=O)N[C@@H](CCCNC(=N)N)C(=O)N3CCC[C@H]3C(=O)NCC(N)=O)C2=O)C(C)C)cc1)C(C)C (some centres unmarked) [LDC13B]
- tumor response (in words) (Transplanted H460 tumor; H460, 2.5 mg/kg dose): shrank rapidly
- tumor response (in words) (Transplanted H460 tumor; H460, after four injections at 5 mg/kg): completely disappeared
- Body weight of mice (Transplanted H460 tumor; [2]): 22.73 g
- Tumor size (Transplanted H460 tumor; [2]): 384 mm^3
- Body weight of mice (Transplanted H460 tumor; [3]): 22.65 g
- Tumor size (Transplanted H460 tumor; [3]): 384 mm^3
- Body weight of mice (Transplanted H460 tumor; [4]): 22.47 g
- Tumor size (Transplanted H460 tumor; [4]): 144 mm^3
- Body weight of mice (Transplanted H460 tumor; [5]): 21.76 g
- Tumor size (Transplanted H460 tumor; [5]): 144 mm^3
- Body weight of mice (Transplanted H460 tumor; 2.5 mg/kg, Before Injection): 22.7 g
- Tumor size (Transplanted H460 tumor; 2.5 mg/kg, Before Injection): 294 mm^3
- Body weight of mice (Transplanted H460 tumor; [6]): 18.36 g
- Tumor size (Transplanted H460 tumor; [6]): 144 mm^3
- Body weight of mice (Transplanted H460 tumor; [7]): 19.65 g
- Tumor size (Transplanted H460 tumor; [7]): 40 mm^3
- Body weight of mice (Transplanted H460 tumor; [8]): 18.21 g
- Tumor size (Transplanted H460 tumor; [8]): 18 mm^3
- Body weight of mice (Transplanted H460 tumor; [9]): 18.22 g
- Tumor size (Transplanted H460 tumor; [9]): 13.5 mm^3
- Body weight of mice (Transplanted H460 tumor; 5 mg/kg, Before Injection): 20.95 g
- Tumor size (Transplanted H460 tumor; 5 mg/kg, Before Injection): 196 mm^3
- more potent than either of the single-ligand drug conjugates LDC1 and LDC13A [1]: 2-10 fold
